{"source": "patent US20120128580A1", "about": "“PRESELECTION OF SUBJECTS FOR THERAPEUTIC TREATMENT WITH ELESCLOMOL BASED ON HYPOXIC STATUS” (SYNTA PHARMACEUTICALS CORP., priority 2010, published 2012)", "key": {"[1]": {"tested_on": "non-small cell lung carcinoma (NSCLC)", "experiment": "Phase II study, elesclomol with paclitaxel and carboplatin versus paclitaxel and carboplatin alone", "assay_type": "in vivo, human", "details": "previously untreated NSCLC Stage IIIB or IV, i.v. every three weeks for six cycles", "procedure": "For example, a Phase II study was performed to test elesclomol in combination with paclitaxel and carboplatin, as compared to paclitaxel and carboplatin alone, in 86 subjects with previously untreated non-small cell lung carcinoma (NSCLC) and non-resectable, locally advanced, or metastatic disease (Stage IIIB or IV) were randomized 1:1 into treatment groups for treatment with carboplatnin plus elesclomol (CP+E) or carboplatnin alone (CP). Subjects were dosed intravenously with 200 mg/m^2 of paclitaxel and AUC=6 of carboplatnin either with or without 266 mg/m^2 of elesclomol every three weeks for six cycles, likely resulting in complete clearance of elesclomol between doses."}, "cancer": {"tested_on": "cancer", "experiment": "Chart review of treatment outcomes by level of hypoxia", "assay_type": "in vivo, human", "description": "A chart review analysis is performed to determine the efficacy of elesclomol for the treatment of cancer based on the level of hypoxia of the tumor based on markers assessed during the treatment of the subjects. […] Subjects who were treated with elesclomol for whom no levels of hypoxic markers were determined can be used as an unstratified control group to understand the efficacy of elesclomol on a treatment population not selected based on the level of hypoxia in the subject/tumor. Alternatively, the population analyzed in the study for which hypoxia levels (e.g., LDH marker levels) can be compared to historical control samples in which an unstratified population was analyzed for response to elesclomol. […] Preferably, the same marker(s) of hypoxia is measured in each of the subjects, e.g., at least one isoform or subunit of lactate dehydrogenase (LDH) or hypoxia inducible factor (HIF); at least one pro-angiogenic form of vascular endothelial growth factor (VEGF), phosphorylated VEGF receptor (pKDR) 1, 2, or 3; neurolipin 1 (NRP-1), pyruvate dehydrokinase (PDH-K), and ornithine decarboxylase (ODC). […]"}, "[2]": {"experiment": "Half-life of elesclomol in humans", "assay_type": "in vivo", "details": "administered alone or with other chemotherapeutic agents", "excerpt": "Elesclomol has been tested or has been approved for testing in clinical trials for treatment of metastatic melanoma, prostate cancer, solid tumors, recurrent or persistent ovarian epithelial cancer, fallopian tube cancer, and primary peritoneal cancer. The half-life of elesclomol in humans has been determined to be about an hour when administered alone or with other chemotherapeutic agents (e.g., with paxitaxel or carboplatinin)."}, "[3]": {"tested_on": "relapsed or refractory acute myeloid leukemia (AML)", "experiment": "Trial of elesclomol sodium in relapsed or refractory AML with low LDH", "assay_type": "in vivo, human", "details": "baseline serum LDH ≤0.8 ULN, elesclomol sodium once-weekly, starting dose 200 mg/m^2", "description": "Subjects are identified as having one of relapsed or refractory acute myeloid leukemia (AML). A subject is selected as being candidate for treatment with elesclomol based on appropriate inclusion or exclusion criteria. Routine assessments are made prior to treatment to characterize the disease state of the subject including, but not limited to, imaging studies, hematological studies, and physical examination. Additionally, coded serum sample from the subject is tested to determine the LDH level.\nThis trial is expected to be sufficiently powered with the enrollment of 36 patients with relapsed or refractory AML and total baseline serum LDH level less-than or equal to 0.8 upper limit of normal (ULN). Patients are treated with elesclomol sodium on a once-weekly schedule at a starting dose of 200 mg/m^2, with dose escalation planned based on safety and tolerability. The primary endpoints are to characterize the safety and tolerability of elesclomol sodium and to determine the pharmacokinetics of elesclomol and its metabolites in this patient population. Secondary endpoints include assessing the activity of elesclomol as a monotherapy in the treatment of AML."}}}
{"smiles": "CN(NC(=O)CC(=O)NN(C)C(=S)c1ccccc1)C(=S)c1ccccc1", "note": "[Elesclomol, N-malonyl-bis(N′-methyl-N′-thiobenzoylhydrazide)]", "values": [{"measurement": "Median Progression Free Survival", "setting": "[1]; High LDH", "result": 2.8, "unit": "months"}, {"measurement": "Median Progression Free Survival", "setting": "[1]; Low LDH", "result": 4.6, "unit": "months"}, {"measurement": "response of subjects with a low level of hypoxia compared to a high level of hypoxia", "setting": "cancer", "result": "better response"}, {"measurement": "half-life", "setting": "[2]", "result": "about an hour"}, {"measurement": "response of subjects with low levels of hypoxia versus historical control populations", "setting": "[3]", "result": "respond better"}]}
